# Source: article PMC3259259 (Chemical Research in Toxicology, 2011)
# Where two headings read alike, the source gives them in different places.
# What was measured:
# [1] = read-out: Kd (incoming nucleotide, Pol•DNA complex); HIV-1 RT; opposite template dC; 37 °C; cited from earlier work
# Single-turnover [2] = assay: Single-turnover; design: species or system [13, 20]; conditions: read-out: Kd (incoming nucleotide, Pol•DNA complex), Pol η, 37 °C
# Single-turnover [3] = assay: Single-turnover; design: species or system [13, 20]; conditions: Rev1; for Kd: read-out: Kd (incoming nucleotide, Pol•DNA complex)
# Single-turnover [4] = assay: Single-turnover; design: species or system [13, 20]; conditions: read-out: Kd (incoming nucleotide, Pol•DNA complex), Pol β, 37 °C
# Single-turnover [5] = assay: Single-turnover; design: species or system [13, 20]; conditions: read-out: Kd (incoming nucleotide, Pol•DNA complex), Pol λ, 37 °C
# Single-turnover [6] = assay: Single-turnover; design: species or system [13, 20]; conditions: Pol ι; for Kd: read-out: Kd (incoming nucleotide, Pol•DNA complex), 37 °C
# Single-turnover [7] = assay: Single-turnover; design: species or system [13, 20]; conditions: Pol κ; for Kd: read-out: Kd (incoming nucleotide, Pol•DNA complex), 37 °C
# [8] = Single-turnover kinetic assays, summary over the non-canonical human pols; design: species or system [13, 20]
# [9] = Pols β, λ, η, ι, κ, Rev1; cited from earlier work
# [10] = read-out: Kd (incoming nucleotide, Pol•DNA complex), Pol η, 37 °C, cited from earlier work
# [11] = Pol ι, 37 °C, cited from earlier work; for Kd: read-out: Kd (incoming nucleotide, Pol•DNA complex)
# [12] = read-out: Kd (incoming nucleotide, Pol•DNA complex), Pol β, 37 °C, cited from earlier work
# [13] = Rev1, 37 °C, cited from earlier work; for Kd: read-out: Kd (incoming nucleotide, Pol•DNA complex)
# [14] = read-out: Kd (incoming nucleotide, Pol•DNA complex), Pol λ, 37 °C, cited from earlier work
# [15] = read-out: Kd (incoming nucleotide, Pol•DNA complex), Pol κ, 37 °C, cited from earlier work
# [16] = read-out: Kd (incoming nucleotide, Pol•DNA complex), Pol γ, 37 °C, cited from earlier work
# [17] = read-out: Kd (incoming nucleotide, Pol•DNA complex); T7 exo; opposite template dT; 37 °C; cited from earlier work
structure (smiles),measurement,setting,value
"C=C1[C@H](COP(=O)(O)OP(=O)(O)OP(=O)(O)O)[C@@H](O)C[C@@H]1n1cnc2c(=O)[nH]c(N)nc21 [ETV-TP, entecavir 5′-triphosphate]",Kd,[1],2.23 ± 0.67 µM
same,Kd,Single-turnover [2]; opposite template dC,2.4 ± 0.4 µM
same,Kd,"Single-turnover [3]; opposite template dC, 37 °C",56 ± 10 µM
same,Kd,Single-turnover [4]; opposite template dC,0.26 ± 0.04 µM
same,Kd,Single-turnover [5]; opposite template dC,0.09 ± 0.02 µM
same,Kd,Single-turnover [6]; opposite template dC,33 ± 5 µM
same,Kd,Single-turnover [7]; opposite template dC,4.2 ± 0.1 µM
same,"Rate of incorporation slower than dGTP, on average","[8]; Pols β, λ, η, ι, κ, Rev1",120 fold
same,"Binding affinity tighter than dGTP, on average",[8]; except for Rev1,approximately 20 fold
"Nc1ccn([C@H]2CS[C@@H](COP(=O)(O)OP(=O)(O)OP(=O)(O)O)O2)c(=O)n1 [L-3TC-TP, β-L-2′,3′-dideoxy-3′-thiacytidine 5′-triphosphate]","Decrease of Kd compared to dCTP, on average",[9],6 fold
same,Kd,[10]; opposite template dG,3.3 ± 0.3 µM
same,Kd,[11]; opposite template dG,96 ± 8 µM
same,Kd,[12]; opposite template dG,0.18 ± 0.02 µM
same,Kd,[13]; opposite template dG,1.04 ± 0.1 µM
same,Kd,[14]; opposite template dG,0.106 ± 0.01 µM
same,Kd,[15]; opposite template dG,4 ± 0.5 µM
same,Kd,[16]; opposite template dG,9.2 ± 0.9 µM
"Cc1cn([C@@H]2C[C@@H](O)[C@H](COP(=O)(O)OP(=O)(O)OP(=O)(O)O)O2)c(=O)[nH]c1=O [L-TBV-TP, β-L-2′-deoxythymidine 5′-triphosphate]",Kd,Single-turnover [2]; opposite template dA,400 ± 100 µM
same,"Kd (incoming nucleotide, Pol•DNA complex)","Single-turnover [3]; opposite template dA, 37 °C",No observed incorporation
same,Kd,Single-turnover [4]; opposite template dA,11 ± 1 µM
same,Kd,Single-turnover [5]; opposite template dA,53 ± 6 µM
same,Kd,Single-turnover [6]; opposite template dA,100 ± 30 µM
same,Kd,Single-turnover [7]; opposite template dA,90 ± 20 µM
same,"Selection factors, range over the non-canonical human pols","[8]; Pols β, λ, η, ι, κ, Rev1, analog vs its natural dNTP, 37 °C","greater than 8,000"
same,"Binding to the Pol•DNA complex weakened compared to dTTP, on average",[8]; pols other than Rev1,10 fold
"Nc1ncnc2c1ncn2CCOCP(=O)(O)OP(=O)(O)OP(=O)(O)O [PMEA-DP, diphosphate of 9-[2-(phosphonomethoxy)ethyl]adenine]",Kd,Single-turnover [2]; opposite template dT,55 ± 18 µM
same,Decrease of rate of incorporation relative to dATP,Single-turnover [3]; opposite template dT,4 fold
same,Ground-state binding affinity (1/Kd) weaker than dATP,Single-turnover [3]; opposite template dT,60 fold
same,Kd,"Single-turnover [3]; opposite template dT, 37 °C",120 ± 20 µM
same,Kd,Single-turnover [4]; opposite template dT,65 ± 6 µM
same,Kd,Single-turnover [5]; opposite template dT (21-19C-41merTG),4.5 ± 0.3 µM
same,Decrease of rate of incorporation relative to dATP,Single-turnover [6]; opposite template dT,30 fold
same,Ground-state binding affinity (1/Kd) relative to dATP,Single-turnover [6]; opposite template dT,unchanged
same,Kd,Single-turnover [6]; opposite template dT,180 ± 40 µM
same,Decrease of rate of incorporation relative to dATP,Single-turnover [7]; opposite template dT,60 fold
same,Ground-state binding affinity (1/Kd) weaker than dATP,Single-turnover [7]; opposite template dT,3 fold
same,Kd,Single-turnover [7]; opposite template dT,23 ± 3 µM
"CC(Cn1cnc2c(N)ncnc21)OCP(=O)(O)OP(=O)(O)OP(=O)(O)O (stereo not drawn) [PMPA-DP, diphosphate of 9-[2-(phosphonomethoxy)propyl]adenine]",Kd,[10]; opposite template dT,90 ± 10 µM
same,Kd,[17],268 ± 39 µM
same,"Kd (incoming nucleotide, Pol•DNA complex)",[11]; opposite template dT,No observed incorporation
same,kp (maximum rate of incorporation),[11]; opposite template dT,too inefficient to be observed
same,Kd,[12]; opposite template dT,50 ± 10 µM
same,"Kd (incoming nucleotide, Pol•DNA complex)",[13]; opposite template dT,No observed incorporation
same,kp (maximum rate of incorporation),[13]; opposite template dT,too inefficient to be observed
same,Kd,[14]; opposite template dT,3.7 ± 0.9 µM
same,Kd,[15]; opposite template dT,3000 ± 2000 µM
same,Kd,[16]; opposite template dT,40.3 ± 5.7 µM
Nc1ncnc2c1ncn2[C@H]1C[C@H](O)[C@@H](COP(=O)(O)OP(=O)(O)OP(=O)(O)O)O1 [dATP],Kd,[10]; opposite template dT,130 ± 30 µM
same,Kd,[17],8 ± 2 µM
same,Kd,[11]; opposite template dT,260 ± 40 µM
same,Kd,[12]; opposite template dT,9.2 ± 1 µM
same,Kd,[13]; opposite template dT,2 ± 0.3 µM
same,Kd,[14]; opposite template dT,0.9 ± 0.3 µM
same,Kd,[15]; opposite template dT,7 ± 1 µM
same,Kd,[16]; opposite template dT,0.8 ± 0.1 µM
Nc1ccn([C@H]2C[C@H](O)[C@@H](COP(=O)(O)OP(=O)(O)OP(=O)(O)O)O2)c(=O)n1 [dCTP],Kd,[10]; opposite template dG,25 ± 4 µM
same,Kd,[11]; opposite template dG,50 ± 5 µM
same,Kd,[12]; opposite template dG,0.71 ± 0.04 µM
same,Kd,[13]; opposite template dG,2.2 ± 0.3 µM
same,Kd,[14]; opposite template dG,0.9 ± 0.1 µM
same,Kd,[15]; opposite template dG,32 ± 5 µM
same,Kd,[16]; opposite template dG,1.1 ± 0.1 µM
Nc1nc2c(ncn2[C@H]2C[C@H](O)[C@@H](COP(=O)(O)OP(=O)(O)OP(=O)(O)O)O2)c(=O)[nH]1 [dGTP],Kd,[1],1.76 ± 0.51 µM
same,Kd,Single-turnover [2]; opposite template dC,80 ± 10 µM
same,Kd,"Single-turnover [3]; opposite template dC, 37 °C",3.9 ± 0.8 µM
same,Kd,Single-turnover [4]; opposite template dC,8.7 ± 0.4 µM
same,Kd,[14]; opposite template dC,2.1 ± 0.3 µM
same,Kd,Single-turnover [6]; opposite template dC,141 ± 8 µM
same,Kd,Single-turnover [7]; opposite template dC,10.6 ± 0.9 µM
Cc1cn([C@H]2C[C@H](O)[C@@H](COP(=O)(O)OP(=O)(O)OP(=O)(O)O)O2)c(=O)[nH]c1=O [dTTP],Kd,[10]; opposite template dA,41 ± 5 µM
same,Kd,[11]; opposite template dA,13 ± 1 µM
same,Kd,[12]; opposite template dA,3.5 ± 0.5 µM
same,Kd,[13]; opposite template dA,6 ± 1 µM
same,Kd,[14]; opposite template dA,2.6 ± 0.4 µM
same,Kd,[15]; opposite template dA,11 ± 0.5 µM
